For `CC(=O)OCc1nc2nc[nH]c2c2nc(-c3ccc(-c4ccccc4)cc3)nn12` [Example 52, 8-(4-biphenylyl)-5-acetoxymethyl-1H-1,2,4-triazolo[5,1-i]purine], which melting point is on record?
The melting point was 233 to 235 °C.

Which melting point does the source give for `CN(C)Cc1nc2nc[nH]c2c2nc(-c3ccc(-c4ccccc4)cc3)nn12` [Example 54, 8-(4-biphenylyl)-5-dimethylaminomethyl-1H-1,2,4-triazolo[5,1-i]purine] here?
The melting point was 284 to 286 °C (dec.).

With `CN(C)CCCc1nc2nc[nH]c2c2nc(-c3ccc(-c4ccccc4)cc3)nn12` [Example 55, 8-(4-biphenylyl)-5-(3-dimethylaminopropyl)-1H-1,2,4-triazolo[5,1-i]purine] as the molecule, how does the melting point read?
The melting point was 227 to 230 °C (dec.).

Which melting point does the source give for `c1ccc(COCCCc2nc3nc[nH]c3c3nc(-c4ccc(-c5ccccc5)cc4)nn23)cc1` [Example 56, 5-(3-benzyloxypropyl)-8-(4-biphenylyl)-1H-1,2,4-triazolo[5,1-i]purine] here?
Its melting point is 237 to 238 °C.

For `c1ccc(COCCCCc2nc3nc[nH]c3c3nc(-c4ccc(-c5ccccc5)cc4)nn23)cc1` [Example 57, 5-(4-benzyloxybutyl)-8-(4-biphenylyl)-1H-1,2,4-triazolo[5,1-i]purine], which melting point is on record?
The melting point was 205 to 207 °C.

Which melting point does the source give for `C[S+]([O-])Cc1nc2nc[nH]c2c2nc(-c3ccc(-c4ccccc4)cc3)nn12` (stereo not shown) [Example 60, 8-(4-biphenylyl)-5-methylsulfinylmethyl-1H-1,2,4-triazolo[5,1-i]purine] here?
The melting point was ≥ 246 °C (dec.).

For `C[S+]([O-])CCc1nc2nc[nH]c2c2nc(-c3ccc(-c4ccccc4)cc3)nn12` (stereo not shown) [Example 61, 8-(4-biphenylyl)-5-(2-methylsulfinylethyl)-1H-1,2,4-triazolo[5,1-i]purine], which melting point is on record?
Its melting point is ≥ 234 °C (dec.).

Source: US6686343B1, “Triazolopurine derivatives, pharmaceutical compositions containing the derivatives, and adenosine A3 receptor affinitive agents” (Otsuka Pharmaceutical Factory, Inc., priority 1999, dated 2004)
